The subject of data set [1] is Staphylococcus aureus. Put plainly: Antibacterial activity against Staphylococcus aureus ATCC 25923 at sub-MIC measured after 4 days. The data set is classed as functional, organism-based. The note with it: time 4.0 day.
For data set [2], the system named is Pseudomonas aeruginosa. Put plainly: Antibacterial activity against Pseudomonas aeruginosa ATCC 27853 at sub-MIC measured after 2 days. It counts as functional, organism-based. Conditions: time 2.0 day.
Data set [3] deals with Erythrocyte. Kind of data set: Hemolytic activity in mouse red blood cell assessed as hemolysis incubated for 1 hr. It counts as toxicity, cell-based.
Data set [4] concerns Klebsiella pneumoniae. Put plainly: Antibacterial activity against Klebsiella pneumoniae ATCC 700603 incubated for 18 to 24 hrs by broth microdilution method. It counts as functional. The note with it: time 18-24 hrs. A general note: In broth dilution the organism is exposed to a series of concentrations in liquid medium.
Data set [5] deals with Enterococcus faecalis. Kind of data set: Antibacterial activity against Enterococcus faecalis ATCC 29212 incubated for 18 to 24 hrs by broth microdilution method. It counts as functional. The note with it: time 18-24 hrs.
Data set [6] has as its system Pseudomonas aeruginosa. Put plainly: Antibacterial activity against Pseudomonas aeruginosa ATCC 27853 incubated for 18 to 24 hrs by broth microdilution method. It counts as functional. Conditions: time 18-24 hrs.
In data set [7] the test system is Bacillus subtilis. Put plainly: Antibacterial activity against Bacillus subtilis ATCC 23857 incubated for 18 to 24 hrs by broth microdilution method. It counts as functional. The note with it: time 18-24 hrs.
Data set [8] deals with Escherichia coli. Kind of data set: Antibacterial activity against Escherichia coli ATCC 25922 incubated for 18 to 24 hrs by broth microdilution method. It counts as functional. The note with it: time 18-24 hrs.
Data set [9] concerns Staphylococcus aureus. Kind of data set: Antibacterial activity against Staphylococcus aureus ATCC 25923 incubated for 18 to 24 hrs by broth microdilution method. It counts as functional. The note with it: time 18-24 hrs.
Data set [10] deals with Acinetobacter baumannii. Put plainly: Antibacterial activity against Acinetobacter baumannii ATCC 19606 incubated for 18 to 24 hrs by broth microdilution method. The data set is classed as functional. Conditions: time 18-24 hrs.
Data set [11] concerns Staphylococcus epidermidis. Put plainly: Antibacterial activity against Staphylococcus epidermidis ATCC 12228 incubated for 18 to 24 hrs by broth microdilution method. The data set is classed as functional. Conditions: time 18-24 hrs.
Data set [12] deals with Pseudomonas aeruginosa. Put plainly: Antibacterial activity against Pseudomonas aeruginosa ATCC 27853 at sub-MIC measured after 3 days. The note with it: time 3.0 day. It counts as functional, organism-based.
The test system of data set [13] is Staphylococcus aureus. Kind of data set: Antibacterial activity against Staphylococcus aureus ATCC 25923 at sub-MIC measured after 5 days. Conditions: time 5.0 day. It counts as functional, organism-based.

Calls of active or inactive are those of the source.

Take `CO[C@H]1/C=C/O[C@@]2(C)Oc3c(C)c(O)c4c(O)c(c(/C=N/N5CCN(C)CC5)c(O)c4c3C2=O)NC(=O)/C(C)=C\C=C\[C@H](C)[C@H](O)[C@@H](C)[C@@H](O)[C@@H](C)[C@H](OC(C)=O)[C@@H]1C`: the result in data set [1] and in [2] was inactive.
For `CCC(C)CCC(=O)N[C@H](CC(N)=O)C(=O)N[C@H](Cc1ccc(O)cc1)C(=O)N[C@H](Cc1c[nH]c2ccccc12)C(=O)N[C@H](CCCN)C(=O)N[C@@H](CCCN)C(=O)NCC(=O)N[C@H](C)C(=O)N[C@@H](Cc1c[nH]c2ccccc12)C(=O)N[C@@H]1C(=O)N[C@@H]([C@@H](C)CC)C(=O)NCC(=O)N[C@@H](CO)C(=O)O[C@@H]1C` (mixture of isomers), the MHC in [3] was 32 µM. For the same compound, the minimum inhibitory concentration (MIC) (in general, the smallest concentration in the dilution series that meets the test's criterion for growth inhibition) in data set [4] was 16 µM; in data set [5], 64 µM; in data set [6] it was 16 µM; in [7], 16 µM; in data set [8] it was 8 µM; in [9] it was 32 µM. The figures for the minimum inhibitory concentration (MIC) in data set [10] and in data set [11] were 8 µM and 32 µM, respectively.
Take `CCC(C)CCC(=O)N[C@H](CC(N)=O)C(=O)N[C@H](Cc1ccc(-c2ccccc2)cc1)C(=O)N[C@H](Cc1c[nH]c2ccccc12)C(=O)N[C@H](CCCN)C(=O)N[C@@H](CCCN)C(=O)NCC(=O)N[C@H](CCCN)C(=O)N[C@@H](Cc1c[nH]c2ccccc12)C(=O)N[C@@H]1C(=O)N[C@@H]([C@@H](C)CC)C(=O)NCC(=O)N[C@@H](CO)C(=O)O[C@@H]1C` (mixture of isomers): the MHC in [3] came to 8 µM. The MIC was found to be 16 µM in data set [4]; 32 µM in data set [5]; 8 µM in [6]; 8 µM in [7]; 16 µM in data set [8]; 16 µM in [9]. The MIC amounted to 8 µM in [10] and 16 µM in data set [11].
For the compound `CCC(C)CCC(=O)N[C@H](CC(N)=O)C(=O)N[C@H](Cc1ccc(O)cc1)C(=O)N[C@H](Cc1c[nH]c2ccccc12)C(=O)N[C@H](CN)C(=O)N[C@@H](CN)C(=O)NCC(=O)N[C@H](CN)C(=O)N[C@@H](Cc1c[nH]c2ccccc12)C(=O)N[C@@H]1C(=O)N[C@@H]([C@@H](C)CC)C(=O)NCC(=O)N[C@@H](CO)C(=O)O[C@@H]1C` (mixture of isomers), in data set [3], the MHC is 128 µM. Also, the MIC was 16 µM in data set [4]; above 128 µM in [5]; 4 µM in data set [6]; 32 µM in data set [7]; 32 µM in data set [8]; 128 µM in [9]. The minimal inhibitory concentration (MIC) in data set [10] worked out at 32 µM; in data set [11], 16 µM.
For the compound `CCC(C)CCC(=O)N[C@H](CC(N)=O)C(=O)N[C@H](Cc1ccc(O)cc1)C(=O)N[C@H](Cc1c[nH]c2ccccc12)C(=O)N[C@H](CCCN)C(=O)N[C@@H](CCCN)C(=O)N[C@@H](CCCN)C(=O)N[C@H](CCCN)C(=O)N[C@@H](Cc1c[nH]c2ccccc12)C(=O)N[C@@H]1C(=O)N[C@@H]([C@@H](C)CC)C(=O)NCC(=O)N[C@@H](CO)C(=O)O[C@@H]1C` (mixture of isomers), the MHC in data set [3] was determined as 128 µM. In addition, the minimal inhibitory concentration (MIC) is 2 µM in data set [4]; 128 µM in data set [5]; 1 µM in [6]; 8 µM in [7]; 2 µM in [8]; 32 µM in data set [9]. Also, the MIC worked out at 8 µM in data set [10] and 16 µM in [11].
With `CCC(C)CCC(=O)N[C@H](CC(N)=O)C(=O)N[C@H](Cc1ccc(O)cc1)C(=O)N[C@H](Cc1c[nH]c2ccccc12)C(=O)N[C@H](CCCN)C(=O)N[C@@H](C)C(=O)NCC(=O)N[C@H](CCCN)C(=O)N[C@@H](Cc1c[nH]c2ccccc12)C(=O)N[C@@H]1C(=O)N[C@@H]([C@@H](C)CC)C(=O)NCC(=O)N[C@@H](CO)C(=O)O[C@@H]1C` (mixture of isomers), the MHC in [3] was found to be 64 µM. The MIC turned out to be 8 µM in [4]; 64 µM in [5]; 4 µM in data set [6]; 16 µM in data set [7]; 8 µM in [8]; 32 µM in data set [9]. Besides, the figures for the MIC in [10] and in data set [11] were 8 µM and 32 µM, respectively.
As for `CCC(C)CCC(=O)N[C@H](CC(N)=O)C(=O)N[C@H](Cc1ccc2ccccc2c1)C(=O)N[C@H](Cc1c[nH]c2ccccc12)C(=O)N[C@H](CCCN)C(=O)N[C@@H](CCCN)C(=O)NCC(=O)N[C@H](CCCN)C(=O)N[C@@H](Cc1c[nH]c2ccccc12)C(=O)N[C@@H]1C(=O)N[C@@H]([C@@H](C)CC)C(=O)NCC(=O)N[C@@H](CO)C(=O)O[C@@H]1C` (mixture of isomers), in [3], the MHC was 8 µM. The MIC in data set [4] came to 8 µM; in [5], 32 µM; in data set [6], 4 µM; in data set [7], 8 µM; in data set [8], 8 µM; in [9] it was 32 µM. Further, the MIC in data set [10] amounted to 8 µM; in [11], 16 µM.
`CCC(C)CCC(=O)N[C@H](CC(N)=O)C(=O)N[C@H](Cc1ccc(C(C)(C)C)cc1)C(=O)N[C@H](Cc1c[nH]c2ccccc12)C(=O)N[C@H](CCCN)C(=O)N[C@@H](CCCN)C(=O)NCC(=O)N[C@H](CCCN)C(=O)N[C@@H](Cc1c[nH]c2ccccc12)C(=O)N[C@@H]1C(=O)N[C@@H]([C@@H](C)CC)C(=O)NCC(=O)N[C@@H](CO)C(=O)O[C@@H]1C` (mixture of isomers): the MHC in [3] is 16 µM. Further, the MIC was 16 µM in data set [4]; 32 µM in data set [5]; 8 µM in [6]; 8 µM in data set [7]; 16 µM in data set [8]; 16 µM in data set [9]. Also, the minimum inhibitory concentration (MIC) in [10] turned out to be 8 µM; in data set [11] it was 16 µM.
On to `CCC(C)CCC(=O)N[C@H](CC(N)=O)C(=O)N[C@H](Cc1ccc(O)cc1)C(=O)N[C@H](Cc1c[nH]c2ccccc12)C(=O)N[C@H](CCCNC(=N)N)C(=O)N[C@@H](CCCNC(=N)N)C(=O)NCC(=O)N[C@H](CCCNC(=N)N)C(=O)N[C@@H](Cc1c[nH]c2ccccc12)C(=O)N[C@@H]1C(=O)N[C@@H]([C@@H](C)CC)C(=O)NCC(=O)N[C@@H](CO)C(=O)O[C@@H]1C` (mixture of isomers), for which the MHC in data set [3] is 128 µM. In addition, the MIC was 4 µM in data set [4]; 64 µM in data set [5]; 4 µM in data set [6]; 16 µM in data set [7]; 4 µM in data set [8]; 64 µM in data set [9]. The results for the minimal inhibitory concentration (MIC) in data set [10] and in data set [11] were 8 µM and 2 µM, respectively.
With `CCC(C)CCC(=O)N[C@H](CCCN)C(=O)N[C@H](Cc1ccc(O)cc1)C(=O)N[C@H](Cc1c[nH]c2ccccc12)C(=O)N[C@H](CCCN)C(=O)N[C@@H](CCCN)C(=O)NCC(=O)N[C@H](CCCN)C(=O)N[C@@H](Cc1c[nH]c2ccccc12)C(=O)N[C@@H]1C(=O)N[C@@H]([C@@H](C)CC)C(=O)NCC(=O)N[C@@H](CO)C(=O)O[C@@H]1C` (mixture of isomers), the MHC in data set [3] is 128 µM. Moreover, the minimum inhibitory concentration (MIC) is 2 µM in data set [4]; 64 µM in data set [5]; 1 µM in data set [6]; 4 µM in [7]; 4 µM in [8]; 32 µM in data set [9]. Besides, the minimal inhibitory concentration (MIC) is 8 µM in data set [10] and 16 µM in data set [11].
As to `CCC(C)CCC(=O)N[C@H](CC(N)=O)C(=O)N[C@H](Cc1ccc(C)cc1)C(=O)N[C@H](Cc1c[nH]c2ccccc12)C(=O)N[C@H](CCCN)C(=O)N[C@@H](CCCN)C(=O)NCC(=O)N[C@H](CCCN)C(=O)N[C@@H](Cc1c[nH]c2ccccc12)C(=O)N[C@@H]1C(=O)N[C@@H]([C@@H](C)CC)C(=O)NCC(=O)N[C@@H](CO)C(=O)O[C@@H]1C` (mixture of isomers), the MHC in data set [3] was found to be 32 µM. The MIC in data set [4] was determined as 8 µM; in [5], 64 µM; in data set [6], 4 µM; in data set [7] it was 8 µM; in data set [8], 8 µM; in data set [9], 32 µM. Besides, the MIC in [10] was found to be 8 µM; in data set [11], 16 µM.
Regarding `CCC(C)CCC(=O)N[C@H](CC(N)=O)C(=O)N[C@H](Cc1ccc(O)cc1)C(=O)N[C@H](Cc1c[nH]c2ccccc12)C(=O)N[C@H](C)C(=O)N[C@@H](CCCN)C(=O)NCC(=O)N[C@H](CCCN)C(=O)N[C@@H](Cc1c[nH]c2ccccc12)C(=O)N[C@@H]1C(=O)N[C@@H]([C@@H](C)CC)C(=O)NCC(=O)N[C@@H](CO)C(=O)O[C@@H]1C` (mixture of isomers), the MHC in data set [3] worked out at 64 µM. The MIC in data set [4] amounted to 8 µM; in [5], 32 µM; in data set [6], 8 µM; in data set [7], 16 µM; in data set [8] it was 8 µM; in data set [9], 32 µM. The figures for the MIC in data set [10] and in data set [11] were 8 µM and 32 µM, respectively.
As for GENTAMICIN, the outcome in [12] and in [13] was inactive.

Values taken from ChEMBL document CHEMBL5512645, “A novel antimicrobial peptide with broad-spectrum and exceptional stability derived from the natural peptide Brevicidine” (Eur J Med Chem, 2024).
